Data: patent US10100372B2, “Recombinant RSV reporter virus” (priority 2014, dated 2018)
Where two headings read alike, the source gives them in different places.

Legend:
recRSV A2-L19F-renilla = experiment: microbe, parasite or virus in culture; type: cell-based; conditions: BEAS-2B, 95% confidence interval in parentheses, inactive = less than 50% reduction of mean reporter signal; for EC50: human respiratory syncytial virus, read-out: EC50 RSV A2-L19F-renilla
recIAV WSN-NanoLuc [1] = conditions: for EC50 IAV WSN-nanoLuc: BEAS-2B, 95% confidence interval in parentheses, inactive = less than 50% reduction of mean reporter signal; for SI [CC50/EC50] IAV: SIIAV
[2] = system: recRSV A2-L19FD489E-fireSMASh; conditions: for EC50 RSV A2-L19FD489E-fireSMASh: BEAS-2B, 95% confidence interval in parentheses, inactive = less than 50% reduction of mean reporter signal; for SI [CC50/EC50] RSV: SIRSV
in vitro = conditions: human
[3] = system: recRSV A2-L19FD489E-fireSMASh; experiment: microbe, parasite or virus in culture; type: cell-based, Respiratory Syncytial Virus; conditions: human respiratory syncytial virus, 384-well, four replicate screens, mean ± SD, BEAS-2B co-infection, read-out: % Inhibition (anti-RSV)
recIAV WSN-NanoLuc [4] = experiment: microbe, parasite or virus in culture; type: cell-based, influenza virus IAV/WSN/33 (H1N1); conditions: unidentified influenza virus, WSN, BEAS-2B, read-out: % Inhibition (anti-IAV)
BEAS-2B cells = conditions: highest concentration 10 μM; tox = less than 50% cell viability after 44 hours at ≤10 μM
recIAV WSN-NanoLuc [5] = experiment: microbe, parasite or virus in culture; conditions: Influenza A virus, BEAS-2B, read-out: EC50 IAV WSN-nanoLuc
[6] = system: recRSV A2-L19FD489E-fireSMASh; experiment: microbe, parasite or virus in culture; conditions: human respiratory syncytial virus, BEAS-2B, read-out: EC50 RSV A2-L19FD489E-fireSMASh
RSV A2 strain = conditions: cited from earlier work
RSV F protein = RSV F protein (Human respiratory syncytial virus, UniProt P12568); conditions: resistance sites in the RSV F protein; cited from earlier work
RSV F protein, sequence (P12568 137-574 limits assumed): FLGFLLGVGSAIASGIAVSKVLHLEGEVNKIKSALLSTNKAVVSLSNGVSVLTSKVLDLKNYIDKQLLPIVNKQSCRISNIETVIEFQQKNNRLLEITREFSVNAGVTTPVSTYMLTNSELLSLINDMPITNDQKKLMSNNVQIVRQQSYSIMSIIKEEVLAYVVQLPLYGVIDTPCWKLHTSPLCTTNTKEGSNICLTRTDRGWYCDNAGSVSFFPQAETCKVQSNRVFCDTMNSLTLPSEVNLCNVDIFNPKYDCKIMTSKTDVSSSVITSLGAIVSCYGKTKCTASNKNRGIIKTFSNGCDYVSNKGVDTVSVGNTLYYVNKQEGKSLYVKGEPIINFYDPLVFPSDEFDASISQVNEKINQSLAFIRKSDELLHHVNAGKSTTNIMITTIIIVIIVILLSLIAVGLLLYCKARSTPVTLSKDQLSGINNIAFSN
RSV F protein, sequence (P12568 26-109 partner limits assumed): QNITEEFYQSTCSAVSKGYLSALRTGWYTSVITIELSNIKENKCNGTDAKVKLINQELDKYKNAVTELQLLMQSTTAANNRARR

recRSV A2-L19F-ren = type: cell-based; conditions: GPAR-3710 added later than four hours post-infection; JMN3-003 added eight hours post-infection

## COc1cc2nc(N3CCCN(C)CC3)nc(NC3CCN(Cc4ccccc4)CC3)c2cc1OC [BIX 01294]
recRSV A2-L19F-renilla
  EC50 RSV A2-L19F-renilla: inactive^e
recIAV WSN-NanoLuc [1]
  EC50 IAV WSN-nanoLuc: inactive^e
[2]
  EC50 RSV A2-L19FD489E-fireSMASh: inactive^e
In vitro
  CC50: > 10 µM

## COc1cccc2c1C(=O)c1c(O)c3c(c(O)c1C2=O)C[C@@](O)(C(=O)CO)C[C@@H]3O[C@H]1C[C@H](N)[C@@H](O)[C@H](C)O1 [Epirubicin]
[3]
  inhibition at 5 µM: 62 ± 6.3%
recIAV WSN-NanoLuc [4]
  inhibition at 5 µM: 75 ± 3.1%

## Cc1nc2ccc(CN(C)c3ccc(C(=O)N[C@@H](CCC(=O)O)C(=O)O)s3)cc2c(=O)[nH]1 [Raltitrexed]
[3]
  inhibition at 5 µM: 91 ± 1%
recIAV WSN-NanoLuc [4]
  inhibition at 5 µM: 60 ± 6.5%

## C[n+]1cc2c3c(ccc2c2ccc4cc5c(cc4c21)OCO5)OCO3 [Sanguinarine]
BEAS-2B cells
  CC50 (PrestoBlue cell viability): tox^d

## NC(=O)c1ncn([C@@H]2O[C@H](CO)[C@@H](O)[C@H]2O)n1 [Ribavirin]
recRSV A2-L19F-renilla
  EC50: 2.9 µM
recIAV WSN-NanoLuc [1]
  SI [CC50/EC50] IAV: SIIAV >2.2
[2]
  SI [CC50/EC50] RSV: SIRSV >3.9
In vitro
  CC50: > 10 µM
recIAV WSN-NanoLuc [5]
  EC50: 4.5 µM
[6]
  EC50: 2.6 µM

## CN(CCOc1ccc(CC2SC(=O)NC2=O)cc1)c1ccccn1 (stereo not drawn) [Rosiglitazone]
[3]
  inhibition at 5 µM: 85 ± 5.8%
recIAV WSN-NanoLuc [4]
  inhibition at 5 µM: 35 ± 5%

## Cc1ccc(O)c(Cn2c(NC3CCN(CCN)CC3)nc3c(C)cccc32)n1 [R170591]
RSV A2 strain; active concentrations based on in vitro assays, when available RSV A2 strain
  EC50: 0.002 µM
RSV F protein
  reported resistance sites: FF488I FF488L FD489Y

## CN(Cc1cnc2nc(N)nc(N)c2n1)c1ccc(C(=O)N[C@@H](CCC(=O)O)C(=O)O)cc1 [Methotrexate]
[3]
  inhibition at 5 µM: 99 ± 0.5%
recIAV WSN-NanoLuc [4]
  inhibition at 5 µM: 100 ± 0.6%

## CC[C@H]1CN2CCc3cc(OC)c(OC)cc3[C@@H]2C[C@@H]1C[C@H]1NCCc2cc(OC)c(OC)cc21 [Emetine]
BEAS-2B cells
  CC50 (PrestoBlue cell viability): tox^d

## O=c1n(Cc2nc3ccccc3n2CCCCO)c2cnccc2n1C1CC1 [BMS-433771]
RSV A2 strain
  EC50: 0.01 µM
RSV F protein
  reported resistance sites: FF140I FV144A FD392G FK394R FD489Y

## COc1cc([C@@H]2c3cc4c(cc3[C@@H](O[C@@H]3O[C@@H]5CO[C@@H](C)O[C@H]5[C@H](O)[C@H]3O)[C@H]3COC(=O)[C@H]23)OCO4)cc(OC)c1O [Etoposide]
[3]
  inhibition at 5 µM: 80 ± 6.6%
recIAV WSN-NanoLuc [4]
  inhibition at 5 µM: 56 ± 5.6%

## COc1ccc(-n2c(SC(C)C(=O)Nc3ccc(C)cc3Cl)nc3ccccc32)cc1 (stereo not drawn) [JMN3-003]
recRSV A2-L19F-ren
  antiviral activity in time-of-addition study: remained potently inhibitory

## CC[C@]1(O)C[C@H]2CN(CCc3c([nH]c4ccccc34)[C@@](C(=O)OC)(c3cc4c(cc3OC)N(C=O)[C@H]3[C@@](O)(C(=O)OC)[C@H](OC(C)=O)[C@]5(CC)C=CCN6CC[C@]43[C@@H]65)C2)C1 [Vincristine]
[3]
  inhibition at 5 µM: 79 ± 6.9%
recIAV WSN-NanoLuc [4]
  inhibition at 5 µM: 50 ± 2.9%

## Cc1c(-c2ccc(-c3ccccc3F)cc2)nc2ccc(F)cc2c1C(=O)O [Brequinar]
recRSV A2-L19F-renilla
  EC50: 1.8 µM
recIAV WSN-NanoLuc [1]
  SI [CC50/EC50] IAV: SIIAV >3.8
[2]
  SI [CC50/EC50] RSV: SIRSV >6.3
In vitro
  CC50: > 10 µM
recIAV WSN-NanoLuc [5]
  EC50: 2.6 µM
[6]
  EC50: 1.6 µM

## Nc1nc(N)c2nc(-c3ccccc3)c(N)nc2n1 [Triamterene]
recRSV A2-L19F-renilla
  EC50 RSV A2-L19F-renilla: inactive^e
recIAV WSN-NanoLuc [1]
  EC50 IAV WSN-nanoLuc: inactive^e
[2]
  EC50 RSV A2-L19FD489E-fireSMASh: inactive^e
In vitro
  CC50: > 10 µM

## c1cnc2c(c1)ccc1cccnc12 [Phenanthroline]
In vitro
  CC50: 2.4 µM

## CC(=O)OC[C@H]1O[C@@H]([S-])[C@H](OC(C)=O)[C@@H](OC(C)=O)[C@@H]1OC(C)=O.CCP(CC)CC.[Au+] [Auranofin]
BEAS-2B cells
  CC50 (PrestoBlue cell viability): tox^d

## CCN(CC)CCOc1ccc(Nc2ncc3cc(-c4c(Cl)cccc4Cl)c(=O)n(C)c3n2)cc1 [PD-166285]
BEAS-2B cells
  CC50 (PrestoBlue cell viability): tox^d
